Results taken from patent US8067243B2 (priority 2008, dated 2011).
Where two headings read alike, the source gives them in different places.

Experiments:
[1] = in vivo, cited from earlier work
[2] = in vivo; cited from earlier work
[3] = human, in vivo
[4] = drug screen, cited from earlier work

## CCOC(=O)C1(c2ccccc2)CCN(C)CC1 [Meperidine]
[1]
  plasma half-life: 3 h
[2]
  Retention Time: 1 to 2 days

## COc1ccc2c3c1O[C@H]1[C@@H](O)C=C[C@H]4[C@@H](C2)N(C)CC[C@@]341 [Codeine]
[3]
  Result (urine concentration): 327 ng/mL
[1]; po
  time to peak plasma concentration: one

## CN1CC[C@]23c4c5ccc(O)c4O[C@H]2[C@@H](O)C=C[C@H]3[C@H]1C5 [Morphine]
[3]
  Result (urine concentration): 104 ng/mL
[1]
  dose excreted in urine as morphine-3-glucuronide: 70%

## C=CCC1(C(C)CCC)C(=O)NC(=O)NC1=O (centres unmarked) [Secobarbital]
[4]
  Retention Time: 0.042 to 1 days

## CCOC(=O)C1(c2ccccc2)CCNCC1 [Normeperidine]
[1]
  plasma half-life: 20 h

## COc1ccc2c3c1O[C@H]1C(=O)CC[C@H]4[C@@H](C2)N(C)CC[C@]314 [Hydrocodone]
[3]
  Result (urine concentration): 864 ng/mL
[2]
  Retention Time: 1 to 3 days
  detection of free drug in urine by LC/MS/MS after administration: 3 days

## CCC(C)C1(CC)C(=O)NC(=O)NC1=O (centres unmarked) [Butabarbital]
[4]
  Retention Time: 1 to 7 days

## CN1[C@H]2CC[C@@H]1[C@@H](C(=O)O)[C@@H](OC(=O)c1ccccc1)C2 [Cocaine metabolite]
[4]
  Retention Time: 1 to 2 days

## CCCC(C)C1(CC)C(=O)NC(=O)NC1=O (centres unmarked) [Pentobarbital]
[4]
  Retention Time: 0.042 to 1 days

## CN1CC[C@]23c4c5ccc(O)c4O[C@H]2C(=O)CC[C@@]3(O)[C@H]1C5 [Oxymorphone]
[3]
  Result (urine concentration): 223 ng/mL
[1]
  dose excreted in urine: About 49%
[2]
  Retention Time: 1 to 3 days
  Retention Time (SR): (SR 2-4 days)
  detection of free drug in urine by LC/MS/MS after administration: up to 3 days
  detection of free drug in urine by LC/MS/MS after slow-release dosage form: up to 4 days

## CC(N)Cc1ccccc1 (centres unmarked) [Amphetamine]
[4]
  Retention Time: 1 to 2 days

## CCC1(CCC(C)C)C(=O)NC(=O)NC1=O [Amobarbital]
[4]
  Retention Time: 1 to 7 days

## CC(=O)Oc1ccc2c3c1O[C@H]1[C@@H](OC(C)=O)C=C[C@H]4[C@@H](C2)N(C)CC[C@@]341 [heroin, diacetyl morphine]
[1]
  heroin dose excreted as morphine-3-glucuronide: Approximately 42%

## c1ccc(C2(N3CCCCC3)CCCCC2)cc1 [Phencyclidine]
[4]; chronic use
  Retention Time, Chronic Use: up to 30 days
[4]
  Retention Time: 8 days

## COc1ccc2c3c1O[C@H]1C(=O)CC[C@@]4(O)[C@@H](C2)N(C)CC[C@]314 [Oxycodone]
[3]
  Result (urine concentration): 544 ng/mL
[1]; po
  oral dose eliminated in urine as oxymorphone: about 14%
  oral dose eliminated in urine as total oxycodone: approximately 60%
[2]
  Retention Time: 1 to 3 days
  Retention Time (SR): (SR 2-4 days)
  detection of free drug in urine by LC/MS/MS after administration: up to 3 days
  detection of free drug in urine by LC/MS/MS after slow-release dosage form: up to 4 days

## C=CCC1(CC(C)C)C(=O)NC(=O)NC1=O [Butalbital]
[4]
  Retention Time: 0.042 to 2 days

## CCO [Ethanol]
[4]
  Retention Time: 0.083 to 0.583 days

## C=CCC1(C(C)C)C(=O)NC(=O)NC1=O [Aprobarbital]
[4]
  Retention Time: 1 to 7 days
